Data taken from ChEMBL document CHEMBL1201862, “PubChem BioAssay data set” (2004).
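Cultured in 96-well plates, cells were exposed to test compound for 48 hours across five concentrations. GI50: concentration for 50% inhibition of growth.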 Active and inactive are the calls of the source. Rule as the data show it: active = GI50 up to about 1.1 µM and inactive = higher.

Legend:
Assay in all cases: growth of human tumour cells (NCI), 48 h
UACC-62 = tested on: UACC-62
SK-MEL-2 = tested on: SK-MEL-2
SK-MEL-28 = tested on: SK-MEL-28
NCI-H23 = tested on: NCI-H23
IGROV-1 = tested on: IGROV-1
M14 = tested on: M14
SNB-19 = tested on: SNB-19
UO-31 = tested on: UO-31
A498 = tested on: A498
SR = tested on: SR
ACHN = tested on: ACHN
HCC 2998 = tested on: HCC 2998
SK-OV-3 = tested on: SK-OV-3
U-251 = tested on: U-251
OVCAR-3 = tested on: OVCAR-3
Malme-3M = tested on: Malme-3M
OVCAR-8 = tested on: OVCAR-8
COLO 205 = tested on: COLO 205
MOLT-4 = tested on: MOLT-4

Nc1nc(N)c2ncn(CCCC(c3ccccc3)P(=O)(O)O)c2n1 (centres undefined)
GI50 (UACC-62): > 100 µM (inactive)
GI50 (SK-MEL-2): > 100 µM (inactive)
GI50 (SK-MEL-28): > 100 µM (inactive)
GI50 (NCI-H23): 19.2 µM (inactive)
GI50 (IGROV-1): > 100 µM (inactive)
GI50 (M14): > 100 µM (inactive)
GI50 (SNB-19): > 100 µM (inactive)
GI50 (UO-31): > 100 µM (inactive)
GI50 (A498): > 100 µM (inactive)
GI50 (SR): > 100 µM (inactive)
GI50 (ACHN): > 100 µM (inactive)
GI50 (HCC 2998): > 100 µM (inactive)
GI50 (SK-OV-3): > 100 µM (inactive)
GI50 (U-251): > 100 µM (inactive)
GI50 (OVCAR-3): > 100 µM (inactive)
GI50 (Malme-3M): > 100 µM (inactive)
GI50 (OVCAR-8): > 100 µM (inactive)
GI50 (COLO 205): > 100 µM (inactive)

CCOC(=O)C1=C(C)N(NC(N)=O)C2(N)N(NC(N)=O)C(C)=C(C(=O)OCC)C12C(=O)OCC (centres undefined)
GI50 (UACC-62): > 100 µM (inactive)
GI50 (SK-MEL-2): > 100 µM (inactive)
GI50 (SK-MEL-28): > 100 µM (inactive)
GI50 (IGROV-1): > 100 µM (inactive)
GI50 (M14): > 100 µM (inactive)
GI50 (SNB-19): > 100 µM (inactive)
GI50 (UO-31): > 100 µM (inactive)
GI50 (A498): > 100 µM (inactive)
GI50 (SR): > 100 µM (inactive)
GI50 (ACHN): > 100 µM (inactive)
GI50 (MOLT-4): > 100 µM (inactive)
GI50 (HCC 2998): > 100 µM (inactive)
GI50 (SK-OV-3): > 100 µM (inactive)
GI50 (U-251): > 100 µM (inactive)
GI50 (OVCAR-3): > 100 µM (inactive)
GI50 (Malme-3M): > 100 µM (inactive)
GI50 (OVCAR-8): > 100 µM (inactive)

O=C(c1ccncc1)C1C(=O)c2ccccc2C1C1(O)c2ccccc2CC1C(O)c1ccncc1 (centres undefined)
GI50 (UACC-62): 18.7 µM (inactive)
GI50 (SK-MEL-2): 23.6 µM (inactive)
GI50 (SK-MEL-28): 89.3 µM (inactive)
GI50 (NCI-H23): 48.6 µM (inactive)
GI50 (IGROV-1): 40.5 µM (inactive)
GI50 (M14): 25.8 µM (inactive)
GI50 (SNB-19): 46.2 µM (inactive)
GI50 (UO-31): 13.9 µM (inactive)
GI50 (A498): 49.1 µM (inactive)
GI50 (SR): 36.7 µM (inactive)
GI50 (ACHN): 62.1 µM (inactive)
GI50 (MOLT-4): 15.1 µM (inactive)
GI50 (HCC 2998): 57.3 µM (inactive)
GI50 (SK-OV-3): 7.96 µM (inactive)
GI50 (U-251): 41 µM (inactive)
GI50 (Malme-3M): 58.7 µM (inactive)
GI50 (OVCAR-8): 60 µM (inactive)
GI50 (COLO 205): 47.6 µM (inactive)

O=c1[nH]cc(OCC(F)(F)F)c(=O)[nH]1
GI50 (UACC-62): > 100 µM (inactive)
GI50 (SK-MEL-2): > 100 µM (inactive)
GI50 (SK-MEL-28): > 100 µM (inactive)
GI50 (NCI-H23): > 100 µM (inactive)
GI50 (IGROV-1): > 100 µM (inactive)
GI50 (M14): > 100 µM (inactive)
GI50 (SNB-19): > 100 µM (inactive)
GI50 (UO-31): > 100 µM (inactive)
GI50 (A498): > 100 µM (inactive)
GI50 (SR): > 100 µM (inactive)
GI50 (ACHN): > 100 µM (inactive)
GI50 (MOLT-4): > 100 µM (inactive)
GI50 (HCC 2998): > 100 µM (inactive)
GI50 (SK-OV-3): > 100 µM (inactive)
GI50 (U-251): > 100 µM (inactive)
GI50 (OVCAR-3): > 100 µM (inactive)
GI50 (Malme-3M): > 100 µM (inactive)
GI50 (OVCAR-8): > 100 µM (inactive)
GI50 (COLO 205): > 100 µM (inactive)

C[C@@H]1[C@H](c2ccccc2)O[B-]2(c3ccc(Br)cc3)OC(=O)C[N+]12C (some centres undefined)
GI50 (UACC-62): > 100 µM (inactive)
GI50 (SK-MEL-2): > 100 µM (inactive)
GI50 (SK-MEL-28): 0.1 µM (active)
GI50 (NCI-H23): > 100 µM (inactive)
GI50 (IGROV-1): > 100 µM (inactive)
GI50 (M14): > 100 µM (inactive)
GI50 (SNB-19): > 100 µM (inactive)
GI50 (UO-31): 66.5 µM (inactive)
GI50 (A498): > 100 µM (inactive)
GI50 (SR): > 100 µM (inactive)
GI50 (ACHN): 86.9 µM (inactive)
GI50 (MOLT-4): 86.5 µM (inactive)
GI50 (HCC 2998): > 100 µM (inactive)
GI50 (SK-OV-3): > 100 µM (inactive)
GI50 (U-251): > 100 µM (inactive)
GI50 (Malme-3M): > 100 µM (inactive)
GI50 (OVCAR-8): > 100 µM (inactive)
GI50 (COLO 205): > 100 µM (inactive)

CC(=O)NNc1nc(C)c(C(=O)NNC(=O)C(=O)Nc2ccc(C)cc2[N+](=O)[O-])s1
GI50 (UACC-62): > 100 µM (inactive)
GI50 (SK-MEL-2): > 100 µM (inactive)
GI50 (SK-MEL-28): > 100 µM (inactive)
GI50 (NCI-H23): > 100 µM (inactive)
GI50 (IGROV-1): > 100 µM (inactive)
GI50 (M14): > 100 µM (inactive)
GI50 (SNB-19): > 100 µM (inactive)
GI50 (UO-31): > 100 µM (inactive)
GI50 (A498): > 100 µM (inactive)
GI50 (SR): 65.2 µM (inactive)
GI50 (ACHN): > 100 µM (inactive)
GI50 (MOLT-4): 98.4 µM (inactive)
GI50 (HCC 2998): > 100 µM (inactive)
GI50 (SK-OV-3): > 100 µM (inactive)
GI50 (U-251): > 100 µM (inactive)
GI50 (OVCAR-3): 47.8 µM (inactive)
GI50 (Malme-3M): > 100 µM (inactive)
GI50 (OVCAR-8): > 100 µM (inactive)
GI50 (COLO 205): > 100 µM (inactive)
